US20110065723A1, “COMPOSITIONS OF N-BENZYL-3-(4-CHLOROPHENYL)-2-[METHYL-[2-OXO-2-(3,4,5-TRIMETHOXYPHENYL)ACETYL]AMINO]-N-[3-(4-PYRIDYL)-1-[2-(4-PYRIDYL)ETHYL]PROPYL]PROPANAMIDE AND USES THEREOF” (priority 2009, published 2011)

Experiments:
[1] = tested on: Mycobacterium tuberculosis Erdman strain (Mtb ATCC 35801); assay: Susceptibility testing (broth microdilution MIC) with or without TIM; assay type: cell-based; conditions: TIM 10 μg/ml
Mtb Erdman = assay: Mouse infection model (lung CFU); assay type: in vivo, C57BL/6 mice; conditions: mice, lungs; TIM 200, INH 25 mg/kg; 4 weeks; FIG. 4B; not to the same extent as RIF, statistically significant
[2] = tested on: Mycobacterium tuberculosis Erdman strain in macrophages; assay: Mtb-THP-1 macrophage infection screening assay; assay type: cell-based
in vivo = conditions: C57BL/6, mouse, po, 10 mg/kg; for AUC(0-inf): RIF AUCinf Plasma; for Cmax: RIF Cmax Plasma
[3] = RIF 10 mg/kg + TIM 200 mg/kg dosed 6 hours prior to RIF

Compound: NNC(=O)c1ccncc1 [Isoniazid, isoniazid]
- in vitro effect of TIM on the activity of the drug against Mtb [1]: no in vitro effect
- effect of TIM on activity in vivo (Mtb Erdman): does enhance INH activity in vivo

Compound: CC(=O)NC[C@H]1CN(c2ccc(N3CCOCC3)c(F)c2)C(=O)O1 [Linezolid]
- in vitro effect of TIM on the activity of the drug against Mtb [1]: no in vitro effect

Compound: CO[C@H]1/C=C/O[C@@]2(C)Oc3c(C)c(O)c4c(O)c(c(/C=N/N5CCN(C)CC5)c(O)c4c3C2=O)NC(=O)/C(C)=C\C=C\[C@H](C)[C@H](O)[C@@H](C)[C@@H](O)[C@@H](C)[C@H](OC(C)=O)[C@@H]1C [RIF, rifampicin]
- Log10 CFU ([2]; Drug conc. 0.04 ug/mL): 4.71 Log10 CFU
- Log10 CFU ([2]; Drug conc. 0.1 ug/mL): 4.47 Log10 CFU
- Log10 CFU ([2]; Drug conc. 0.4 ug/mL): 4.58 Log10 CFU
- Log10 CFU ([2]; Drug conc. 1.1 ug/mL): 3.98 Log10 CFU
- Log10 CFU ([2]; Drug conc. 3.3 ug/mL): 1.94 Log10 CFU
- Log10 CFU ([2]; Drug conc. 10 ug/mL): 2.12 Log10 CFU
- Log10 CFU ([2]; Drug conc. 30 ug/mL): 1.10 Log10 CFU
- AUC(0-inf) (in vivo; [3]): 153 µg·h/mL
- AUC(0-inf) (in vivo; RIF 10 mg/kg alone): 152 µg·h/mL
- Cmax (in vivo; [3]): 14900 ng/mL
- Cmax (in vivo; RIF 10 mg/kg alone): 19800 ng/mL

Compound: CO[C@H]1/C=C/O[C@@]2(C)Oc3c(C)c(O)c4c(O)c(c(/C=N/N5CCN(C6CCCC6)CC5)c(O)c4c3C2=O)NC(=O)/C(C)=C\C=C\[C@H](C)[C@H](O)[C@@H](C)[C@@H](O)[C@@H](C)[C@H](OC(C)=O)[C@@H]1C [Rifapentine, rifapentine]
- in vitro effect of TIM on the activity of the drug against Mtb [1]: no in vitro effect

Compound: COc1nc2ccc(Br)cc2cc1[C@@H](c1ccccc1)[C@@](O)(CCN(C)C)c1cccc2ccccc12 [TMC-207]
- potentiating effect of TIM on the activity against Mtb ([1]; MIC without vs with TIM): 15 fold

Compound: CC(=O)NC[C@H]1CN(c2ccc(N3CCSCC3)c(F)c2)C(=O)O1 [U-100480]
- in vitro effect of TIM on the activity of the drug against Mtb [1]: no in vitro effect

Compound: CCc1cc(C(N)=S)ccn1 [ethionamide]
- in vitro effect of TIM on the activity of the drug against Mtb [1]: no in vitro effect

Compound: COc1c(N2CCNC(C)C2)c(F)cc2c(=O)c(C(=O)O)cn(C3CC3)c12 (centres unmarked) [gatifloxacin]
- in vitro effect of TIM on the activity of the drug against Mtb [1]: no in vitro effect

Compound: acriflavin
- in vitro effect of TIM on the activity of the drug against Mtb [1]: no in vitro effect
